Reference: PMC8632694 (Frontiers in Pharmacology, 2021)
Entries after “also recorded” stand apart in the source; their conditions may differ. Like-named read-outs stand apart in the source and are kept apart here.

Assays:
[1] = Steady-state plasma pharmacokinetics of atorvastatin, 2-hydroxyatorvastatin and atorvastatin lactone after atorvastatin 40 mg once daily for 7 days, alone or co-administered with tegoprazan 50 mg or vonoprazan 20 mg; conditions: for AUCτ / Css,max / Tss,max: N = 28; for AUCτ / Css,max / Metabolic ratio (AUCmetabolite/AUCatorvastatin): mean ± SD; for Css,max, GMR (90% CI): ratio of atorvastatin co-administered with tegoprazan to administered alone; for Tss,max: plasma, median (minimum-maximum)
Description: (§1) Among three interventions, subjects received intervention R twice and received intervention T and V once each. Subjects were allocated to one of the four sequences: T-R-V-R, R-T-R-V, R-V-R-T, and V-R-T-R (Figure 1). There were washout periods of 7–9 days between each intervention. Furthermore, this study was carried out in three groups since entire subjects could not be studied simultaneously.
(§2) Subjects had scheduled visits on the morning of Days 1–4 for dosing and then were admitted to the Clinical Trial Center of Samsung Medical Center on the evening of Day 4. Subjects received the study drug orally with water of 150 ml after an overnight fast of at least 10 h on Days 5–7 and were required to fast for an additional 4 h postdose on Day 7.
(§3) Blood samples were centrifuged at approximately 1,800 g for 10 min at 4°C, and then the plasma samples were stored at less than -70°C until the assays.
(§4) The correction coefficients (r2) were greater than 0.99 over these concentration ranges. The precision and accuracy for mean within-run data and mean between-run data of all analytes were determined using the percentage of relative SD (%RSD) and the percentage of deviation of the mean from theoretical (%DMT).

[2] = human, in vivo
Description: as §1, §2, §3, §4

clinical = conditions: human, in vivo, AUCτ
Description: as §1, §2, §3, §4

[3] = when absorbed through the intestine; ref Lennernäs, 2003; cited from earlier work
[4] = Safety and tolerability: treatment-emergent adverse events by intervention; type: in vivo, human; conditions: for subjects who discontinued the study due to AEs: neutropenia in intervention T, blood creatine phosphokinase increased in intervention R; for number of TEAEs (all) / number of subjects with TEAEs / percentage of subjects with TEAEs: per intervention (R1 31, R2 28, T 30, V 29 subjects), T and V co-administered with atorvastatin
Description: Safety was assessed based on symptom reports, physical examinations, vital signs, 12-lead ECGs, and clinical laboratory tests (hematology, clinical chemistry, and urinalysis).

[5] = Serum gastrin, pepsinogen I and II levels pre-dose and 24 h after 7 days of administration; type: in vivo, human; conditions: co-administered with atorvastatin for 7 days; compared to the baseline
Description: Error bars represent standard errors. The increase of serum levels in each intervention was compared to the intervention R. P-values were adjusted by Tukey-Kramer method; *p < 0.05; **p < 0.001.

OATP1B1 = conditions: cited from earlier work
CYP3A4 [6] = system: CYP3A4; parameters: method as in Nishihara et al., 2019; HK inno.N Corp; conditions: in vitro; ref Nishihara et al., 2019; HK inno.N Corp; cited from earlier work
CYP3A4 [7] = assay: CYP3A4 inhibition in vitro (literature values); type: biochemical; conditions: ref Nishihara et al., 2019, HK inno.N Corp
CYP3A4 [8] = assay: Estimated intestinal luminal concentration of vonoprazan compared with the CYP3A4 IC50; conditions: vonoprazan 20 mg orally administered
[9] = Atorvastatin alone (N = 28 for each intervention), comparison with tegoprazan
[10] = Atorvastatin alone (N = 28 for each intervention), comparison with vonoprazan
[11] = Reference 1: first intervention, atorvastatin 40 mg alone 7 days
[12] = Reference 2: second intervention, atorvastatin 40 mg alone 7 days
[13] = atorvastatin 40 mg co-administered with tegoprazan 50 mg 7 days
[14] = atorvastatin 40 mg co-administered with vonoprazan 20 mg 7 days
[15] = atorvastatin co-administered with vonoprazan compared to atorvastatin alone
[16] = TEAE, intervention arm = label, P-CAB arms co-administered with atorvastatin 40 mg, 7 days
[17] = TEAE, serum gastrin greater than 200 ng/L, intervention arm = label, co-administered with atorvastatin 40 mg, 7 days

CC(C)c1c(C(=O)Nc2ccccc2O)c(-c2ccccc2)c(-c2ccc(F)cc2)n1CCC(O)CC(O)CC(=O)O (centres unmarked) [2-hydroxyatorvastatin]
AUCτ, geometric least squares mean [1, 9]: 137.9 ng·h/mL | Css,max, geometric least squares mean [1, 9]: 22.5 ng/mL | AUCτ, geometric least squares mean [1, 10]: 138.2 ng·h/mL | Css,max, geometric least squares mean [1, 10]: 22.7 ng/mL | AUCτ [1, 11]: 152.04 ± 70.25 ng·h/mL | Css,max [1, 11]: 24.95 ± 11.77 ng/mL | Metabolic ratio (AUCmetabolite/AUCatorvastatin) [1, 11]: 1.27 ± 0.52 | AUCτ [1, 12]: 144.35 ± 58.71 ng·h/mL | Css,max [1, 12]: 25.72 ± 17.15 ng/mL | Metabolic ratio (AUCmetabolite/AUCatorvastatin) [1, 12]: 1.32 ± 0.55 | AUCτ, geometric least squares mean ([1]; With Tegoprazan (N = 28)): 144.8 ng·h/mL | Css,max, geometric least squares mean ([1]; With Tegoprazan (N = 28)): 23.8 ng/mL | AUCτ, geometric least squares mean ([1]; With Vonoprazan (N = 28)): 125.1 ng·h/mL | Css,max, geometric least squares mean ([1]; With Vonoprazan (N = 28)): 15.91 ng/mL | AUCτ [1, 13]: 156.46 ± 67.69 ng·h/mL | Css,max [1, 13]: 26.34 ± 12.64 ng/mL | Metabolic ratio (AUCmetabolite/AUCatorvastatin) [1, 13]: 1.31 ± 0.47 | AUCτ [1, 14]: 135.57 ± 64.05 ng·h/mL | Css,max [1, 14]: 18.19 ± 12.16 ng/mL | Metabolic ratio (AUCmetabolite/AUCatorvastatin) [1, 14]: 0.90 ± 0.32 | Decrease of AUCτ [1, 15]: 9% | Decrease of Css,max [1, 15]: 30% | Css,max, GMR (90% CI) [1]: 1.06 (0.95-1.17)

CC(C)c1c(C(=O)Nc2ccccc2)c(-c2ccccc2)c(-c2ccc(F)cc2)n1CC[C@@H]1C[C@@H](O)CC(=O)O1 [Atorvastatin lactone, atorvastatin lactone]
AUCτ, geometric least squares mean [2]: 67.3 ng·h/mL | AUCτ ([2]; 40 mg): 57.36 ± 28.51 ng·h/mL | AUC (clinical; 40 mg): 61.1 ± 30.2 ng·h/mL | AUC (clinical; geometric least squares mean): 52.1 ng·h/mL

CC(C)c1c(C(=O)Nc2ccccc2)c(-c2ccccc2)c(-c2ccc(F)cc2)n1CC[C@@H](O)C[C@@H](O)CC(=O)O [Atorvastatin, atorvastatin]
fraction of orally administered dose lost in the gut [3]: 76% | Css,max, geometric least squares mean [1, 9]: 32.4 ng/mL | Css,max, geometric least squares mean [1, 10]: 32.4 ng/mL | Css,max [1, 11]: 37.21 ± 19.65 ng/mL | Tss,max ([1]; Reference 1: first intervention, atorvastatin 40 mg alone once daily 7 days): 0.75 (0.50–6.00) h | Css,max [1, 12]: 37.37 ± 22.81 ng/mL | Tss,max ([1]; Reference 2: second intervention, atorvastatin 40 mg alone once daily 7 days): 0.75 (0.50–3.00) h | Css,max, geometric least squares mean ([1]; With Tegoprazan (N = 28)): 35.4 ng/mL | Css,max, geometric least squares mean ([1]; With Vonoprazan (N = 28)): 37.9 ng/mL | Css,max [1, 13]: 40.75 ± 21.52 ng/mL | Tss,max ([1]; atorvastatin 40 mg co-administered with tegoprazan 50 mg once daily 7 days): 1.25 (0.50–3.00) h | Css,max [1, 14]: 42.71 ± 25.76 ng/mL | Tss,max ([1]; atorvastatin 40 mg co-administered with vonoprazan 20 mg once daily 7 days): 1.50 (0.50–4.00) h | Increase of Css,max ([1]; atorvastatin co-administered with tegoprazan, not statistically significant): 9% | Increase of Css,max [1, 15]: 17% | Css,max, GMR (90% CI) [1]: 1.09 (0.97–1.23) | within-subject CV of Css,max ([1]; this study, multiple doses for 7 days (data not shown)): 33.6% | subjects who discontinued the study due to AEs [4]: 1

CC(C)c1c(C(=O)Nc2ccccc2)c(-c2ccccc2)c(-c2ccc(F)cc2)n1CC[C@@H](O)C[C@@H](O)CC(=O)O [Reference 1, atorvastatin]
Anaemia: number of events [4, 16]: 1 | Anaemia: number of subjects [4, 16]: 1 | Anaemia: percentage of subjects [4, 16]: 3.2% | Blood bilirubin increased: number of events [4, 16]: 1 | Blood bilirubin increased: number of subjects [4, 16]: 1 | Blood bilirubin increased: percentage of subjects [4, 16]: 3.2% | Ocular discomfort: number of events [4, 16]: 1 | Ocular discomfort: number of subjects [4, 16]: 1 | Ocular discomfort: percentage of subjects [4, 16]: 3.2% | Pyuria: number of events [4, 16]: 1 | Pyuria: number of subjects [4, 16]: 1 | Pyuria: percentage of subjects [4, 16]: 3.2% | number of TEAEs (all) [4]: Seven | number of subjects with TEAEs [4]: 6 | percentage of subjects with TEAEs [4]: 19.4%

CC(C)c1c(C(=O)Nc2ccccc2)c(-c2ccccc2)c(-c2ccc(F)cc2)n1CC[C@@H](O)C[C@@H](O)CC(=O)O [Reference 2, atorvastatin]
Anaemia: number of events [4, 16]: 1 | Anaemia: number of subjects [4, 16]: 1 | Anaemia: percentage of subjects [4, 16]: 3.6% | Blood bilirubin increased: number of events [4, 16]: 2 | Blood bilirubin increased: number of subjects [4, 16]: 2 | Blood bilirubin increased: percentage of subjects [4, 16]: 7.1% | Pyuria: number of events [4, 16]: 1 | Pyuria: number of subjects [4, 16]: 1 | Pyuria: percentage of subjects [4, 16]: 3.6% | number of TEAEs (all) ([4]; listed as intervention R2): 8 | number of subjects with TEAEs ([4]; listed as intervention R2): 7

Cc1nc2cc(C(=O)N(C)C)cc(O[C@H]3CCOc4cc(F)cc(F)c43)c2[nH]1 [Tegoprazan, tegoprazan]
increase in serum pepsinogen I [5]: 2.7 times | increase in serum pepsinogen II [5]: 2.2 times | increase of serum gastrin [5]: 1.2 times | inhibitory activity on OATP1B1 (OATP1B1; in vitro / non-clinical study, ref HK inno.N Corp): showed the inhibitory activity on some OATP1B1 substrates; also recorded: showed various inhibitory activities | IC50 (CYP3A4 [6]): > 30 µM | expected plasma concentration at clinical doses relative to the CYP3A4 IC50 (fold lower) (CYP3A4 [7]): 25 fold | Blood bilirubin increased: number of events [4, 16]: 2 | Blood bilirubin increased: number of subjects [4, 16]: 2 | Blood bilirubin increased: percentage of subjects [4, 16]: 6.7% | Neutrophil count decreased: number of events [4, 16]: 1 | Neutrophil count decreased: number of subjects [4, 16]: 1 | Neutrophil count decreased: percentage of subjects [4, 16]: 3.3% | Ocular discomfort: number of events [4, 16]: 1 | Ocular discomfort: number of subjects [4, 16]: 1 | Ocular discomfort: percentage of subjects [4, 16]: 3.3% | Pyuria: number of events [4, 16]: 1 | Pyuria: number of subjects [4, 16]: 1 | Pyuria: percentage of subjects [4, 16]: 3.3% | subjects who discontinued the study due to AEs [4]: 1 | number of TEAEs (all) [4]: Ten | number of subjects with TEAEs [4]: 7 | percentage of subjects with TEAEs [4]: 23.3%

CNCc1cc(-c2ccccc2F)n(S(=O)(=O)c2cccnc2)c1 [Vonoprazan, vonoprazan]
increase in serum pepsinogen I [5]: 5.6 times | increase in serum pepsinogen II [5]: 5.4 times | inhibition of OATP1B1 (OATP1B1; in vitro study, ref Pharmaceuticals and Medical Devices Agency, 2014): did not inhibit OATP1B1 | IC50 (CYP3A4 [6]): […] | expected plasma concentration at clinical doses relative to the CYP3A4 IC50 (fold lower) (CYP3A4 [7]): […] | Hypergastrinaemia: number of subjects ([4]; TEAE, serum gastrin greater than 200 ng/L, intervention arm = label, P-CAB arms co-administered with atorvastatin 40 mg, 7 days): 6 | Hypergastrinaemia: number of events [4, 17]: 6 | Hypergastrinaemia: percentage of subjects [4, 17]: 20.7% | Blood bilirubin increased: number of events [4, 16]: 1 | Blood bilirubin increased: number of subjects [4, 16]: 1 | Blood bilirubin increased: percentage of subjects [4, 16]: 3.4% | Dyspepsia: number of events [4, 16]: 2 | Dyspepsia: number of subjects [4, 16]: 2 | Dyspepsia: percentage of subjects [4, 16]: 6.9% | Headache: number of events [4, 16]: 2 | Headache: number of subjects [4, 16]: 2 | Headache: percentage of subjects [4, 16]: 6.9% | Neutrophil count decreased: number of events [4, 16]: 2 | Neutrophil count decreased: number of subjects [4, 16]: 2 | Neutrophil count decreased: percentage of subjects [4, 16]: 6.9% | Pyuria: number of events [4, 16]: 2 | Pyuria: number of subjects [4, 16]: 2 | Pyuria: percentage of subjects [4, 16]: 6.9% | occurrence of hypergastrinemia (serum gastrin level greater than 200 ng/L) ([4]; across the interventions): only occurred when atorvastatin was co-administered with vonoprazan | number of TEAEs (all) [4]: 17 | number of subjects with TEAEs [4]: 15 | percentage of subjects with TEAEs [4]: 51.7% | intestinal luminal concentration (CYP3A4 [8]; estimated, ref US Food and Drug Administration, 2020b): approximately 232 μM | intestinal luminal concentration relative to the CYP3A4 IC50 (fold higher) (CYP3A4 [8]): […]
